Laboratory results from patent US8669072B2, “Oxadiazoline ligands for modulating the expression of exogenous genes via an ecdysone receptor complex” (Intrexon Corporation, priority 2003, dated 2014).

Columns and labels:
[1] = target: T1, GAL4 DBD-CfEcR(DEF)/VP16AD-MmRXRE (Choristoneura fumiferana, UniProt O77240); assay: 13B3 assay: luciferase reporter gene induction in stable CHO clone 13B3; assay type: cell-based; settings: 33/33.3 μM ligand, 48 h, RLU relative to DMSO
T1 construct: The wild-type D, E, and F domains from spruce budworm Choristoneura fumiferana EcR (“CfEcR-DEF”)
Method: CHO cells were transiently transfected with transcription cassettes for GAL4 DBD-CfEcR(DEF) and for VP16AD-MmRXRF controlled by SV40e promoters. Stably transfected cells were selected using Hygromycin. Individually isolated CHO cell clones were transiently transfected with a GAL4 RE-luciferase reporter (pFR-Luc, Stratagene, La Jolla, Calif.). The 13B3 clone was selected using Zeocin.
Cells were trypsinized and diluted to a concentration of 2.5×10^4 cells mL. 100 μL of cell suspension was placed in each well of a 96 well plate and incubated at 37° C. under 5% CO2 for 24 h. Ligand stock solutions were prepared in DMSO and diluted 300 fold for all treatments.
Luciferase reporter gene expression was measured 48 h after cell treatment using Bright-Glo™ Luciferase Assay System from Promega (E2650). Luminescence was detected at room temperature using a Dynex MLX microtiter plate luminometer.
(§1) Each assay was conducted in two separate wells, and the two values were averaged. Fold inductions were calculated by dividing relative light units (“RLU”) in ligand treated cells with RLU in DMSO treated cells. EC50s were calculated from dose response data using a three-parameter logistic model.

Bombyx mori EcR (VBE) = target: T2, Bombyx mori EcR (VBE) (Bombyx mori, UniProt P49881); assay: Z3 assay: β-galactosidase reporter gene induction in HEK-293 clone Z3 (CVBE / 6XEcRE LacZ); assay type: cell-based; settings: 33 μM ligand, 48 h, RLU relative to DMSO
T2 construct: expressed in transfected cells; host or cells: Human HEK-293 cells, retrovirally infected, clone Z3
T2 sequence (P49881 86-606 limits assumed): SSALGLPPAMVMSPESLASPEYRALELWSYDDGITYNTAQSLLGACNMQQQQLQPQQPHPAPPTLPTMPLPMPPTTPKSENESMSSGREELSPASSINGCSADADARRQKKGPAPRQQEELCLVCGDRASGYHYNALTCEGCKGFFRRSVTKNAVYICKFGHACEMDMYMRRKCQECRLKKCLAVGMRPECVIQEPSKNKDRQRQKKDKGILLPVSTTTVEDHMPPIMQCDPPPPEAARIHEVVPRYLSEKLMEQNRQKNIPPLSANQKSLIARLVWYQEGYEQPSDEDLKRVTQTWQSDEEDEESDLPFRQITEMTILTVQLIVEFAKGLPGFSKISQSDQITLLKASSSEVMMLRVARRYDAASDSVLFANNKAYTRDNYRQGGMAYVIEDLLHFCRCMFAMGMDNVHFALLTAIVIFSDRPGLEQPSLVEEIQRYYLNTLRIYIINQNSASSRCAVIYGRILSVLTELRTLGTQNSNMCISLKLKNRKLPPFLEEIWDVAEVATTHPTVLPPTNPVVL
T2 sequence (P19793 1-462 partner): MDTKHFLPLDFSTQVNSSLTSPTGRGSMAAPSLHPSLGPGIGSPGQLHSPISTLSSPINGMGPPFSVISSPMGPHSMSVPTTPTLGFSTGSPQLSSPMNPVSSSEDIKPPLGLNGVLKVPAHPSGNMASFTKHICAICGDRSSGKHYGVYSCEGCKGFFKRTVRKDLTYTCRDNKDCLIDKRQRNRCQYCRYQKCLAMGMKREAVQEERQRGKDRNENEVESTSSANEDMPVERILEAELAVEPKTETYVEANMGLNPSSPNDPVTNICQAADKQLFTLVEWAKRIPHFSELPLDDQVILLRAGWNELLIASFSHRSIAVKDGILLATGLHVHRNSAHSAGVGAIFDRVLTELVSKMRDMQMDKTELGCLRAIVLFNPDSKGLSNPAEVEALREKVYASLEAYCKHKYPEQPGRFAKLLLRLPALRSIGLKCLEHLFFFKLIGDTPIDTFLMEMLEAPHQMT
Method: A synthetic ATG start codon was placed under the control of cytomegalovirus (CVBE) immediate early promoter and flanked by long terminal repeats (LTR). The reporter construct contained six copies of the ecdysone response element (EcRE) binding site placed upstream of LacZ and flanked on both sides with LTR sequences (6×EcRE).
Dilution cloning was used to isolate individual clones. Clones were selected using 450 ug/mL G418 and 100 ng/mL puromycin. Individual clones were evaluated based on their response in the presence and absence of test ligands.
Z3 cells were seeded into 96-well tissue culture plates at a concentration of 2.5×10^3 cells per well and incubated at 37° C. in 5% CO2 for twenty-four hours. Stock solutions of ligands were prepared in DMSO. […] The final concentration of DMSO was maintained at 0.03% in both controls and treatments.
Reporter gene expression was evaluated 48 hours after treatment of cells, β-galactosidase activity was measured using Gal Screen™ bioluminescent reporter gene assay system from Tropix (GSY1000). Fold induction activities were calculated by dividing relative light units (“RLU”) in ligand treated cells with RLU in DMSO treated cells. Luminescence was detected at room temperature using a Dynex MLX microtiter plate luminometer.
as §1

SMILES	Fold Induction Average, 13B3 assay [1]	Fold Induction Average, Z3 assay (Bombyx mori EcR (VBE))	fold induction at 33.3 µM ([1]; read-out: Fold Induction Average, 13B3 assay)	fold induction at 33 µM (Bombyx mori EcR (VBE); HEK293, read-out: Fold Induction Average, Z3 assay)
CC1(C)ON=C(c2ccc3c(c2)OCO3)N1NC(=O)Cc1ccccc1 [RG-120081]	0.5	0.6	–	–
COc1ccc(C2=NOC(C)(C)N2NC(=O)c2cc3ccccc3s2)c(OC)c1 [RG-120129]	0.9	0.4	–	–
CC1(C)ON=C(c2cccc(C(F)(F)F)c2)N1NC(=O)COc1ccccc1 [RG-120163]	1.1	0.5	–	–
CC1(C)ON=C(c2cccc(C(F)(F)F)c2)N1NC(=O)c1ccco1 [RG-120070]	0.4	0.7	–	–
CCOC(=O)CCC(=O)NN1C(c2ccc3c(c2)OCO3)=NOC1(C)C [RG-120083]	1.3	0.8	–	–
CC1(C)ON=C(c2ccc3c(c2)OCO3)N1NC(=O)COCc1ccccc1 [RG-120145]	1.4	0.5	–	–
CCc1c(OC)cccc1C(=O)NN1C(c2ccc(-c3ccccc3)cc2)=NOC1(C)C [RG-120020]	1.3	0.2	–	–
CC1(C)ON=C(c2ccc(Cl)cc2)N1NC(=O)COc1ccccc1 [RG-120162]	0.9	0.7	–	–
CC1(C)ON=C(c2ccc(Cl)cc2)N1NC(=O)COCc1ccccc1 [RG-120117]	1.2	0.8	–	–
CC1(C)ON=C(c2ccc(Cl)cc2)N1NC(=O)Nc1ccccc1 [RG-120067]	2.6	0.5	–	–
CC1(C)ON=C(c2ccc3c(c2)OCO3)N1NC(=O)c1ccccc1 [RG-120156]	1.4	0.7	–	–
Cc1cc(C)cc(C2=NOC(C)(C)N2NC(=O)NC(=O)c2ccccc2)c1 [RG-120111]	0.6	0.7	–	–
Cc1cc(C)cc(C2=NOC3(CCCC3)N2NC(=O)COCc2ccccc2)c1 [RG-120052]	0.7	4.9	–	–
COc1ccc(C2=NOC(C)(C)N2NC(=O)Nc2ccccc2)c(OC)c1 [RG-120114]	1.1	0.6	–	–
Cc1cc(C)cc(C2=NOC(C)(C)N2NC(=O)NCc2ccccc2)c1 [RG-120088]	0.9	8.2	–	–
CC1(C)ON=C(c2ccc(OC(F)(F)F)cc2)N1NC(=O)COc1ccccc1 [RG-120029]	1.5	0.7	–	–
COc1ccccc1C1=NOC(C)(C)N1NC(=O)Nc1ccccc1 [RG-120025]	0.9	0.8	–	–
COc1ccccc1C1=NOC(C)(C)N1NC(=O)c1ccccc1 [RG-120147]	1.1	1.0	–	–
Cc1cccc(NC(=O)NN2C(c3cc(C)cc(C)c3)=NOC2(C)C)c1 [RG-120056]	0.1	1.0	–	–

SMILES	Fold Induction Average, 13B3 assay [1]	Fold Induction Average, Z3 assay (Bombyx mori EcR (VBE))	fold induction at 33.3 µM ([1]; read-out: Fold Induction Average, 13B3 assay)	fold induction at 33 µM (Bombyx mori EcR (VBE); HEK293, read-out: Fold Induction Average, Z3 assay)
CC1(C)ON=C(c2ccc(Cl)cc2)N1NC(=O)c1ccco1 [RG-120082]	0.1	0.8	–	–
COc1ccccc1C1=NOC(C)(C)N1NC(=O)c1cc2ccccc2s1 [RG-120047]	973.9	31.9	–	–
CC1(C)ON=C(c2ccc(OC(F)(F)F)cc2)N1NC(=O)c1ccccc1 [RG-120033]	0.9	0.7	–	–
Cc1cc(C)cc(C2=NOC3(CCCC3)N2NC(=O)Cc2ccccc2)c1 [RG-120046]	1.3	8.9	–	–
CC1(C)ON=C(c2ccc3c(c2)OCO3)N1NC(=O)Nc1ccccc1 [RG-120017]	0.8	0.9	–	–
Cc1cc(C)cc(C2=NOC(C)(C)N2NC(=O)c2cccc([N+](=O)[O-])c2)c1 [RG-120091]	0.5	1.5	–	–
Cc1cc(C)cc(C2=NOC3(CCOCC3)N2NC(=O)COCc2ccccc2)c1 [RG-120009]	1.3	0.8	–	–
CCOC(=O)CCC(=O)NN1C(c2cccc(C(F)(F)F)c2)=NOC1(C)C [RG-120153]	0.8	0.7	–	–
COc1ccc(C2=NOC(C)(C)N2NC(=O)COCc2ccccc2)c(OC)c1 [RG-120110]	0.8	0.5	–	–
CC1(C)ON=C(c2ccc(Cl)cc2)N1NC(=O)Cc1ccccc1 [RG-120121]	0.1	0.7	–	–
CCOC(=O)CCC(=O)NN1C(c2ccccc2OC)=NOC1(C)C [RG-120144]	0.1	0.7	–	–
COc1ccccc1C1=NOC(C)(C)N1NC(=O)c1ccco1 [RG-120012]	0.7	0.7	–	–
CCOC(=O)CCC(=O)NN1C(c2ccc(Cl)cc2)=NOC1(C)C [RG-120164]	1.7	0.6	–	–
Cc1cc(C)cc(C2=NOC(C)(C)N2NC(=O)Nc2ccccc2)c1 [RG-120072, 1-[3-(3,5-Dimethyl-phenyl)-5,5-dimethyl-[1,2,4]oxadiazol-4-yl]-3-phenyl-urea]	–	–	0.6	1.3
COc1ccccc1C(=O)NN1C(c2cc(C)cc(C)c2)=NOC1(C)C [RG-120075]	1.1	0.7	–	–
CC1(C)ON=C(c2ccc(Cl)cc2)N1NC(=O)C(F)(F)C(F)(F)Cl [RG-120073]	0.9	0.5	–	–
CC1(C)ON=C(c2ccc(OC(F)(F)F)cc2)N1NC(=O)COCc1ccccc1 [RG-120066]	1.4	0.6	–	–
CC1(C)ON=C(c2ccc(OC(F)(F)F)cc2)N1NC(=O)Nc1ccccc1 [RG-120122]	0.5	0.6	–	–
CC1(C)ON=C(c2ccc(OC(F)(F)F)cc2)N1NC(=O)Cc1ccccc1 [RG-120160]	0.3	0.6	–	–
